Reference: patent US8513271B2, “Pyrimidine compounds as delta opioid receptor modulators” (Janssen Pharmaceutica, NV, priority 2009, dated 2013)
Like-named read-outs stand apart in the source and are kept apart here.

Molecular target: T1, delta opioid receptor (Mus musculus, UniProt P32300)
T1 construct: NG108-15 cell membranes were purchased from Applied Cell Sciences (Rockville, Md.); host or cells: NG108-15 cell membranes
Assay: [35S]GTPγS binding assay in NG108-15 cell membranes (delta opioid functional assay), 200 nM screen
Assay type: biochemical
Conditions: NG108-15 cell membranes; for GTPγS δ-RelEfficacy @200 nM: 200 nM test compound, relative to calculated max of SNC80 dose response curve; for GTPγS δ-RelEfficacy @200 nM / EC50: averages if tested more than once; for GTPγS δ-opioid receptor Rel Efficacy: relative efficacy from dose response

[1] = read-out: GTPγS δ-opioid receptor EC50
[2] = GTPγS δ-opioid receptor EC50 (μM)

T1 sequence (P32300 whole entry): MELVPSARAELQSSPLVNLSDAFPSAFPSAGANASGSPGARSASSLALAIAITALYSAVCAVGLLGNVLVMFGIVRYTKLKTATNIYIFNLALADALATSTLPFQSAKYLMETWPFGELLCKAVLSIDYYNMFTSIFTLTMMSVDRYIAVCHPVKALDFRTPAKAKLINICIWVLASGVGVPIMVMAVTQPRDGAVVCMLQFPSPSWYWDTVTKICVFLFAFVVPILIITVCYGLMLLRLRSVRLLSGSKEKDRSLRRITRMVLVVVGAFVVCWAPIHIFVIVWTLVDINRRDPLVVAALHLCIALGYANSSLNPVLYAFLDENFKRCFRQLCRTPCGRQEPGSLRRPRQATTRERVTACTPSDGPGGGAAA

| Compound | GTPγS δ-RelEfficacy @200 nM | EC50 [1] | GTPγS δ-opioid receptor Rel Efficacy | EC50 [2] |
| --- | --- | --- | --- | --- |
| COc1cncc(-c2ncc(NC[C@@H]3CCCN3)c(Oc3ccccc3Cl)n2)c1 [Cpd 232] | 0.679 | 0.143 µM | 1.021 | – |
| CSc1cncc(-c2ncc(NC[C@@H]3CCCN3)c(Oc3ccccc3Cl)n2)c1 [Cpd 233] | 0.549 | – | – | – |
| COCCOc1ccc(Oc2nc(-c3cncc(SC)c3)ncc2NC[C@@H]2CCCN2)cc1 [Cpd 241] | 0.381 | – | – | – |
| COCCOc1ccc(Oc2nc(-c3cncc(C)c3)ncc2NC[C@@H]2CCCN2)cc1 [Cpd 242] | 0.413 | – | – | – |
| COCCOc1ccc(Oc2nc(-c3cncc(OC)c3)ncc2NC[C@@H]2CCCN2)cc1 [Cpd 243] | 0.433 | – | – | – |
| COCCOc1ccc(Oc2nc(-c3cccnc3)ncc2NC[C@@H]2CCCN2)cc1 [Cpd 244] | 0.354 | – | – | – |
| COc1ccc(Oc2nc(-c3cncc(OC)c3)ncc2N[C@@H]2CCCNC2)cc1 [Cpd 246] | – | – | 1.043 | 0.078 µM |
| CSc1cncc(-c2ncc(NC[C@@H]3CCCN3)c(Oc3cccc(OC(C)=O)c3)n2)c1 [Cpd 248] | 0.754 | – | 1.084 | 0.047 µM |
| COc1cncc(-c2ncc(NC[C@@H]3CCCN3)c(Oc3cccc(O)c3)n2)c1 [Cpd 249] | 1.000 | – | 0.940 | 0.011 µM |
| COc1cncc(-c2ncc(NC[C@@H]3CCCN3)c(Oc3cccc(OC(C)=O)c3)n2)c1 [Cpd 250, Acetic acid 3-{2-(5-methoxy-pyridin-3-yl)-5-[(pyrrolidin-2-(S)-ylmethyl)-amino]-pyrimidin-4-yloxy}-phenyl ester] | 0.912 | – | 1.022 | 0.026 µM |
| CC(=O)Oc1cccc(Oc2nc(-c3cncc(C)c3)ncc2NC[C@@H]2CCCN2)c1 [Cpd 251] | 0.955 | – | 1.145 | 0.015 µM |
| COc1ccc(Oc2nc(-c3cncc(SC)c3)ncc2N[C@@H]2CCCNC2)cc1 [Cpd 254] | – | – | 0.928 | 0.151 µM |
| COc1ccc(Oc2nc(-c3cncc(C)c3)ncc2N[C@H]2CCNC2)cc1 [Cpd 257] | – | – | 0.830 | 0.095 µM |
| COc1ccc(Oc2nc(-c3cncc(C)c3)ncc2N[C@@H]2CCCNC2)cc1 [Cpd 258] | – | – | 0.835 | 0.075 µM |
| COc1ccc(Oc2nc(-c3cncc(C)c3)ncc2N[C@H]2CCCNC2)cc1 [Cpd 259] | – | – | 1.030 | 0.0749 µM |
| Cc1cncc(-c2ncc(NC[C@@H]3CCCN3)c(Oc3ccc(OCF)cc3)n2)c1 [Cpd 260] | – | 0.3 µM | 0.937 | – |
| COc1ccc(Oc2nc(-c3cccnc3)ncc2N[C@@H]2CCCNC2)cc1 [Cpd 261] | – | – | 0.979 | 0.241 µM |
| COc1ccc(Oc2nc(-c3cnc(F)c(C)c3)ncc2NC[C@@H]2CCCN2)cc1 [Cpd 262] | – | 0.037 µM | 0.957 | – |
| COc1ccc(Oc2nc(-c3cc(C)cnc3C)ncc2NC[C@@H]2CCCN2)cc1 [Cpd 263] | – | – | 0.869 | 0.027 µM |
| COc1ccc(Oc2nc(-c3cnc(-c4cnc(Cl)c(C)c4)c(C)c3)ncc2NC[C@@H]2CCCN2)cc1 [Cpd 264] | – | 0.12 µM | 1.036 | – |
| COc1ccc(Oc2nc(-c3cnc(Cl)cc3C)ncc2NC[C@@H]2CCCN2)cc1 [Cpd 265] | – | – | 1.024 | 0.053 µM |
| COc1ccc(Oc2nc(-c3cnc(Cl)c(C)c3)ncc2NC[C@@H]2CCCN2)cc1 [Cpd 266] | – | – | 1.041 | 0.018 µM |
| COc1ccc(Oc2nc(-c3cccnc3)ncc2NC[C@H]2CCCCN2)cc1 [Cpd 267] | – | 0.121 µM | 0.920 | – |
| COc1ccc(Oc2nc(-c3cc(C)cnc3Cl)ncc2NC[C@@H]2CCCN2)cc1 [Cpd 268] | – | – | 1.023 | 0.081 µM |

| Compound | GTPγS δ-RelEfficacy @200 nM | EC50 [1] | GTPγS δ-opioid receptor Rel Efficacy | EC50 [2] |
| --- | --- | --- | --- | --- |
| COc1ccc(Oc2nc(-c3cncc(CO)c3)ncc2NC[C@@H]2CCCN2)cc1 [Cpd 269, (5-{4-(4-Methoxy-phenoxy)-5-[(pyrrolidin-2-(S)-ylmethyl)-amino]-pyrimidin-2-yl}-pyridin-3-yl)-methanol] | – | – | 0.984 | 0.053 µM |
| COc1ccc(Oc2nc(-c3cccnc3)ncc2NC[C@@H]2C[C@@H](O)CN2)cc1 [Cpd 270, 5-(S)-{[4-(4-Methoxy-phenoxy)-2-(pyridin-3-yl)-pyrimidin-5-ylamino]-methyl}-pyrrolidin-3-(R)-ol] | – | 0.197 µM | 0.820 | – |
| COc1ccc(Oc2nc(-c3cccnc3)ncc2NC[C@@H]2C[C@H](O)CN2)cc1 [Cpd 272] | – | > 1 µM | – | – |
| COc1ccc(Oc2nc(-c3cncc(OC)c3)ncc2NC[C@@H]2C[C@@H](O)CN2)cc1 [Cpd 273, 5-(S)-{[4-(4-Methoxy-phenoxy)-2-(5-methoxy-pyridin-3-yl)-pyrimidin-5-ylamino]-methyl}-pyrrolidin-3-(R)-ol] | – | – | 1.001 | 0.026 µM |
| COc1ccc(Oc2nc(-c3cncc(OC)c3)ncc2NC[C@H]2C[C@@H](O)CN2)cc1 [Cpd 274, 5-(R)-{[4-(4-Methoxy-phenoxy)-2-(5-methoxy-pyridin-3-yl)-pyrimidin-5-ylamino]-methyl}-pyrrolidin-3-(R)-ol] | – | – | 0.863 | 0.286 µM |
| COc1ccc(Oc2nc(-c3cncc(C#N)c3)ncc2NCc2ncc[nH]2)cc1 [Cpd 284] | 0.600 | – | 0.609 | 0.055 µM |
| COc1ccc(Oc2nc(-c3cncc(C#N)c3)ncc2NCc2[nH]cnc2C)cc1 [Cpd 285, 5-{4-(4-Methoxy-phenoxy)-5-[(5-methyl-3H-imidazol-4-ylmethyl)-amino]-pyrimidin-2-yl}-nicotinonitrile] | 0.730 | – | 0.782 | 0.027 µM |
| COc1ccc(Oc2nc(-c3cncc(C#N)c3)ncc2NCc2cncn2C)cc1 [Cpd 286] | 0.1 | – | – | – |
| CCc1nc(C)c(CNc2cnc(-c3cncc(C#N)c3)nc2Oc2ccc(OC)cc2)[nH]1 [Cpd 287] | 0.640 | – | – | – |
| COc1ccc(Oc2nc(-c3cccnc3)ncc2NCc2cnc[nH]2)cc1 [Cpd 288] | 0.428 | – | – | – |
| COc1ccc(Oc2nc(-c3cncc(SC)c3)ncc2NCc2cnc[nH]2)cc1 [Cpd 289] | 0.402 | – | – | – |
| COc1ccc(Oc2nc(-c3cncc(OC)c3)ncc2NCc2cnc[nH]2)cc1 [Cpd 290] | 0.398 | – | – | – |
| COc1ccc(Oc2nc(-c3cncc(C)c3)ncc2NCc2cnc[nH]2)cc1 [Cpd 291] | 0.303 | – | – | – |
| COc1ccc(Oc2nc(-c3cncc(C)c3)ncc2NCCN)cc1 [Cpd 296] | – | 0.429 µM | 0.938 | – |
| CNCCNc1cnc(-c2cccnc2)nc1Oc1ccc(OC)cc1 [Cpd 297] | – | 0.424 µM | 0.820 | – |
| COc1ccc(Oc2nc(-c3cncc(C#N)c3)ncc2NC2CC(N)C2)cc1 (stereo not drawn) [Cpd 303] | 0.622 | 0.114 µM | 1.047 | – |
| COc1ccc(Oc2nc(-c3cccnc3)ncc2N[C@H]2CC[C@@H](N)CC2)cc1 [Cpd 305] | 0.780 | – | 1.081 | 0.09 µM |
| COc1ccc(Oc2nc(-c3cccnc3)ncc2NC2CCCC(N)C2)cc1 (stereo not drawn) [Cpd 306] | 0.910 | – | 1.127 | 0.031 µM |
| COc1ccc(Oc2nc(-c3cncc(OC)c3)ncc2N[C@H]2CCC[C@@H](N)C2)cc1 [Cpd 312, N-[4-(4-Methoxy-phenoxy)-2-(5-methoxy-pyridin-3-yl)-pyrimidin-5-yl]-cyclohexane-(1R,3S)-1,3-diamine] | – | – | 1.007 | 0.00435 µM |
| COc1ccc(Oc2nc(-c3cncc(C)c3)ncc2NC2CCCC(N)C2)cc1 (stereo not drawn) [Cpd 315] | – | – | 1.019 | 0.042 µM |
| COc1ccc(Oc2nc(-c3cncc(SC)c3)ncc2N[C@H]2CCC[C@@H](N)C2)cc1 [Cpd 316] | – | – | 0.977 | 0.00338 µM |
| COc1ccc(Oc2nc(-c3cncc(SC)c3)ncc2N[C@@H]2CCC[C@H](N)C2)cc1 [Cpd 317] | – | – | – | > 1 µM |
| c1cncc(-c2ncc(N3CCNCC3)c(Oc3ccc(C4CC4)cc3)n2)c1 [Cpd 320] | – | 0.191 µM | 0.918 | – |
| COc1ccc(Oc2nc(-c3cccnc3)ncc2N[C@H]2CCC[C@@H](N)C2)cc1 [Cpd 321] | – | – | 1.022 | 0.005 µM |
